From US20020025983A1, “Vitamin K and essential fatty acids” (priority 2000, published 2002)

Assays:
women with osteoporosis = settings: 45 mg/day; cited from earlier work
[1] = system: person with atopic dermatitis and with mild premenstrual syndrome; assay: Case report: person with atopic dermatitis and mild premenstrual syndrome given EPO, vitamin K1, then EPO again; format: in vivo, human; settings: vitamin K1 supplements alone
Source text: A person with atopic dermatitis and with mild premenstrual syndrome was recommended to take 3 g/day of evening primrose oil (EPO). EPO is a widely used nutritional supplement for these problems. It contains about 70% of linoleic acid, but more importantly contains 8-12% of GLA which can by-pass a block in the conversion of linoleic acid to GLA which can occur in many situations, including atopic dermatitis, stress and menstrual disorders. […] As an experiment they were then cautiously given EPO again.

[2] = system: person with severe menstrual cramps and mild premenstrual syndrome; assay: Case report: person with severe menstrual cramps and mild premenstrual syndrome given EPO and fish oil, vitamin K1, then EPO and fish oil again; format: in vivo, human; settings: vitamin K1 supplement 2 mg (2000 μg) per day for a month, alone
Protocol: A second person presented with severe menstrual cramps and mild premenstrual syndrome. […] They therefore took 2 mg (2000 μg) per day of a vitamin K1 supplement for a month which also had no effect on their menstrual problems.

Compound | progressive loss of bone mineral density (women with osteoporosis) | risk of bone fractures (women with osteoporosis) | improvement of skin or premenstrual syndrome [1] | vitamin K deficiency [1] | effect on menstrual problems [2]
menaquinones [vitamin K2] | slow down but not prevent | could reduce the risk of bone fractures | – | – | –
CC1=C(C/C=C(\C)CCC[C@H](C)CCC[C@H](C)CCCC(C)C)C(=O)c2ccccc2C1=O [vitamin K1, phylloquinone] | – | – | did not improve | corrected | no effect
